# Target: T1, USP7 (Homo sapiens, UniProt Q93009, C315A)
# T1 construct: 0.25 nM His-His-USP7 (aa208-560, [C315A]) was incubated with compound; His-His (N)
# Experiment: Inhibition of USP7 by Fluorescence Intensity (FLINT) readings, Ubiquitin-Rhodamine-110 substrate
# Type: biochemical
# Details: 0.25 nM His-His-USP7 (aa208-560, [C315A]); compound 60 minutes at 30° C.; 500 nM Ubiquitin-Rhodamine substrate; 11-point curves
# Description: USP7 activity was measured using Rhodamine-110 c-terminal labelled Ubiquitin as a substrate (Viva Biosciences). Incubation with USP7 results in the release of Rhodamine-110 leading to an increase in fluorescence which can be used in the continuous measurement of USP7 activity.
# The USP7 reactions were performed in a 50 μL volume, in 384 well black solid low binding plates (Corning #3575). The reaction buffer consisted of 100 mM Bicine pH 8.0, 0.01% TritonX 100, 1 mM TCEP, and 10% DMSO.
# 0.25 nM His-His-USP7 (aa208-560, [C315A]) was incubated with compound (final concentration 10% DMSO) for 60 minutes at 30° C. The reaction was then initiated by the addition of 500 nM Ubiquitin-Rhodamine-10 substrate and the plate read every 3 minutes for 21 minutes to measure the release of Rhodamine-110. Fluorescence Intensity (FLINT) readings were measured using a Biomek Neo plate reader (Ex. 485 nm. Em. 535 nm).
# The inhibition of increasing doses of compound was expressed as a percentage reduction in kinetic rate compared to the kinetic rates established between ‘DMSO only’ and ‘total inhibition’ controls (no USP7). The inhibitory concentrations that gave a 50% reduction in kinetic rate (IC50) were determined, from 11-point dose response curves, in XL-Fit using a 4-Parameter Logistic Model (Sigmoidal Dose-Response Model).
# T1 sequence (Q93009 208-560 C315A): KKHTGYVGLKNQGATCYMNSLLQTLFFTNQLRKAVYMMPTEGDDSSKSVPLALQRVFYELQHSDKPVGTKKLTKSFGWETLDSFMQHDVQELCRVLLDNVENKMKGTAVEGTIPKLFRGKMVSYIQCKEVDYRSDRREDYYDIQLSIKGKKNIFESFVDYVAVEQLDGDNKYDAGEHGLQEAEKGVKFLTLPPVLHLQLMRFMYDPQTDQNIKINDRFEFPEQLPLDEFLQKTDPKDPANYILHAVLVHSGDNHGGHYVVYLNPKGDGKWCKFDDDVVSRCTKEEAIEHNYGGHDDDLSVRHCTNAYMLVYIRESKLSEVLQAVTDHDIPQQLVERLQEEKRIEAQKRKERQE
row,IC50,SMILES
1,125 nM,"O=C([C@@H]1CCC(F)(F)C[C@H]1c1ccco1)N1CCC(O)(Cn2cnc3c(-c4ccccc4)scc3c2=O)CC1 (single isomer, unassigned) [Example 86, 3-[[1-[trans-4,4-difluoro-2-(2-furyl)cyclohexanecarbonyl]-4-hydroxy-4-piperidyl]methyl]-7-phenyl-thieno[3,4-d]pyrimidin-4-one]"
2,351 nM,"COc1ccc(CNc2ccc3ncn(CC4(O)CCN(C(=O)[C@@H]5CCCC[C@H]5c5ccccc5)CC4)c(=O)c3n2)cc1 (relative stereo) [Example 94, 3-[[4-hydroxy-1-(trans-2-phenylcyclohexanecarbonyl)-4-piperidyl]methyl]-6-[(4-methoxyphenyl)methylamino]pyrido[3,2-d]pyrimidin-4-one]"
3,2900 nM,"COc1ccc(-n2ccc3c(=O)n(CC4(O)CCN(C(=O)[C@@H]5CCC(F)(F)C[C@H]5c5ccoc5)CC4)cnc32)cc1 (relative stereo) [Example 74, 3-[[1-[trans-4,4-difluoro-2-(3-fury)cyclohexanecarbonyl]-4-hydroxy-4-piperidyl]methyl]-7-(4-methoxyphenyl)pyrrolo[2,3-d]pyrimidin-4-one]"
4,450 nM,"O=C([C@@H]1CCCC[C@H]1c1ccccc1)N1CCC(O)(Cn2cnc3c(ccn3Cc3ccsc3)c2=O)CC1 (relative stereo) [Example 110, 3-[[4-hydroxy-1-(trans-2-phenylcyclohexanecarbonyl)-4-piperidyl]methyl]-7-(3-thienylmethyl)pyrrolo[2,3-d]pyrimidin-4-one]"
5,2760 nM,"O=C([C@@H]1CC(F)(F)CC[C@H]1c1ccccc1)N1CCC(O)(Cn2cnc3c(ccn3-c3ccccc3)c2=O)CC1 (single isomer, unassigned) [Example 31, 3-[[1-[trans-5,5-difluoro-2-phenyl-cyclohexanecarbonyl]-4-hydroxy-4-piperidyl]methyl]-7-phenyl-pyrrolo[2,3-d]pyrimidin-4-one]"
6,28000 nM,"O=C([C@@H]1OCCO[C@@H]1c1ccccc1)N1CCC(O)(Cn2cnc3c(ccn3-c3ccccc3)c2=O)CC1 (single isomer, unassigned) [Example 6, 3-[[4-hydroxy-1-[cis-3-phenyl-1,4-dioxane-2-carbonyl]-4-piperidyl]methyl]-7-phenyl-pyrrolo[2,3-d]pyrimidin-4-one]"
7,10100 nM,"O=C([C@@H]1CCCC(F)(F)[C@H]1c1ccccc1)N1CCC(O)(Cn2cnc3c(ccn3-c3ccccc3)c2=O)CC1 (relative stereo) [Example 51, 3-[[1-[trans-3,3-difluo-2-phenyl-cyclohexanecarbonyl]-4-hydroxy-4-piperidyl]methyl]-7-phenyl-pyrrolo[2,3-d]pyrimidin-4-one]"
8,67 nM,"O=C([C@@H]1CCCO[C@H]1c1ccccc1)N1CCC(O)(Cn2cnc3c(ccn3-c3ccccc3)c2=O)CC1 (single isomer, unassigned) [Example 26, 3-[[4-hydroxy-1-[trans-2-phenyltetrahydropyran-3-carbonyl]-4-piperidyl]methyl]-7-phenyl-pyrrolo[2,3-d]pyrimidin-4-one]"
9,725 nM,"COc1ccc(-n2ccc3c(=O)n(CC4(O)CCN(C(=O)C5C(C)=CCCC5c5cccs5)CC4)cnc32)cc1 (single isomer, unassigned) [Example 60, 3-[[4-hydroxy-1-[trans-2-methy-6-(2-thienyl)cyclohex-2-ene-1-carbonyl]-4-piperidyl]methyl]-7-(4-methoxyphenyl)pyrrolo[2,3-d]pyrimidin-4-one]"
10,226 nM,"Nc1ccc2ncn(CC3(O)CCN(C(=O)[C@@H]4CCCC[C@H]4c4ccccc4)CC3)c(=O)c2n1 (relative stereo) [Example 100, 6-amino-3-[[4-hydroxy-1-(trans-2-phenylcyclohexanecarbonyl)-4-piperidyl]methyl]pyrido[3,2-d]pyrimidin-4-one]"
11,125 nM,"O=C(Nc1ccc2ncn(CC3(O)CCN(C(=O)[C@@H]4CCCC[C@H]4c4ccccc4)CC3)c(=O)c2n1)C1CCCC1O (relative stereo) [Example 103, 2-hydroxy-N-[3-[[4-hydroxy-1-(trans-2-phenylcyclohexanecarbonyl)-4-piperidyl]methyl]4-oxo-pyrido[3,2-d]pyrimidin-6-yl]cyclopentanecarboxamide]"
12,205 nM,"O=C([C@@H]1CCC(F)(F)C[C@H]1c1ccccc1)N1CCC(O)(Cn2cnc3c(ccn3C3CC3)c2=O)CC1 (single isomer, unassigned) [Example 116, 7-cyclopropyl-3-[[1-[trans-4,4-difluoro-2-phenyl-cyclohexanecarbonyl]-4-hydroxy-4-piperidyl]methyl]pyrrolo[2,3-d]pyrimidin-4-one]"
13,2920 nM,"Cc1cc([C@@H]2CC(F)(F)CC[C@H]2C(=O)N2CCC(O)(Cn3cnc4c(-c5ccccc5)scc4c3=O)CC2)cs1 (relative stereo) [Example 90, 3-[[1-[trans-4,4-difluoro-2-(S-methyl-3-thienyl)cyclohexanecarbonyl]-4-hydroxy-4-piperidyl]methyl]-7-phenyl-thieno[3,4-d]pyrimidin-4-one]"
14,399 nM,"CN1C(=O)CC[C@@H](C(=O)N2CCC(O)(Cn3cnc4c(ccn4C)c3=O)CC2)[C@@H]1c1ccccc1 (single isomer, unassigned) [Example 38, 3-[[4-hydroxy-1-[trans-1-methyl-6-oxo-2-phenyl-piperidine-3-carbonyl]-4-piperidyl]methyl]-7-methyl-pyrrolo[2,3-d]pyrimidin-4-one]"
15,65.2 nM,"COc1ccc(-n2ccc3c(=O)n(CC4(O)CCN(C(=O)[C@@H]5C(C)=CCC[C@H]5c5cccs5)CC4)cnc32)cc1 (single isomer, unassigned) [Example 59, 3-[[4-hydroxy-1-[trans-2-methyl-6-(2-thienyl)cyclohex-2-ene-1-carbonyl]-4-piperidyl]methyl]-7-(4-methoxyphenyl)pyrrolo[2,3-d]pyrimidin-4-one]"
16,425 nM,"COc1ccc(-n2ccc3c(=O)n(CC4(O)CCN(C(=O)C5CCCCN5c5ccccc5)CC4)cnc32)cc1 (centres unmarked) [Example 10, 3-[[4-hydroxy-1-(1-phenylpiperidine-2-carbonyl)-4-piperidyl]methyl]-7-(4-methoxyphenyl)pyrrolo[2,3-d]pyrimidin-4-one]"
17,682 nM,"COc1ccc(-n2ccc3c(=O)n(CC4(O)CCN(C(=O)[C@@H]5C(C)=CCC[C@H]5c5ccsc5)CC4)cnc32)cc1 (single isomer, unassigned) [Example 62, 3-[[4-hydroxy-1-[trans-2-methyl-6-(3-thienyl)cyclohex-2-ene-1-carbonyl]-4-piperidyl]methyl]-7-(4-methoxyphenyl)pyrrolo[2,3-d]pyrimidin-4-one]"
18,11100 nM,"O=C([C@@H]1CCCC[C@H]1n1cccc1)N1CCC(O)(Cn2cnc3c(ccn3-c3ccccc3)c2=O)CC1 (single isomer, unassigned) [Example 13, 3-[[4-hydroxy-1-[trans-2-pyrrol-1-ylcyclohexanecarbonyl]-4-piperidyl]methyl]-7-phenyl-pyrrolo[2,3-d]pyrimidin-4-one]"
19,883 nM,"COc1ccc(-n2ccc3c(=O)n(CC4(O)CCN(C(=O)[C@@H]5CCCC[C@H]5c5ccc(F)cc5)CC4)cnc32)cc1 (single isomer, unassigned) [Example 40, 3-[[1-[trans-2-(4-fluorophenyl)cyclohexanecarbonyl]-4-hydroxy-4-piperidyl]methyl]-7-(4-methoxyphenyl)pyrrolo[2,3-d]pyrimidin-4-one]"
20,76.5 nM,"NC(=O)CSCCC(=O)Nc1ccc2ncn(CC3(O)CCN(C(=O)[C@@H]4CCCC[C@H]4c4ccccc4)CC3)c(=O)c2n1 (relative stereo) [Example 108, 3-(2-amino-2-oxo-ethyl)sulfanyl-N-[3-[[4-hydroxy-1-(trans-2-phenylcyclohexanecarbonyl)-4-piperidyl]methyl]-4-oxo-pyrido[3,2-d]pyrimidin-6-yl]propanamide]"
21,19400 nM,"O=C([C@@H]1OCCO[C@@H]1c1ccccc1)N1CCC(O)(Cn2cnc3c(ccn3-c3ccccc3)c2=O)CC1 (single isomer, unassigned) [Example 5, 3-[[4-hydroxy-1-[cis-3-phenyl-1,4-dioxane-2-carbonyl]-4-piperidyl]methyl]-7-phenyl-pyrrolo[2,3-d]pyrimidin-4-one]"
22,100 nM,"O=C(CC1CCCO1)Nc1ccc2ncn(CC3(O)CCN(C(=O)[C@@H]4CCCC[C@H]4c4ccccc4)CC3)c(=O)c2n1 (relative stereo) [Example 106, N-[3-[[4-hydroxy-1-(trans-2-phenylcyclohexanecarbonyl)-4-piperidyl]methyl]-4-oxo-pyrido[3,2-d]pyrimidin-6-yl]-2-tetrahydrofuran-2-yl-acetamide]"
23,6500 nM,"COc1ccc(-n2ccc3c(=O)n(CC4(O)CCN(C(=O)[C@@H]5OCCO[C@@H]5c5ccccc5)CC4)cnc32)cc1 (single isomer, unassigned) [Example 7, 3-[[4-hydroxy-1-[cis-3-phenyl-1,4-dioxane-2-carbonyl]-4-piperidyl]methyl]-7-(4 methoxyphenyl)pyrrolo[2,3-d]pyrimidin-4-one]"

# From US11332472B2, “Substituted piperidines as inhibitors of ubiquitin specific protease 7” (LES LABORATOIRES SERVIER, priority 2017, dated 2022)
